What was measured:
TRPM4 = target: T1, TRPM4 (Mus musculus, UniProt Q7TN37); experiment: TRPM4 current in cilia of TRPM3-knockout mIMCD-3 cells; format: biochemical, murine; conditions: 2 mM cytoplasmic MgATP, cilia lacking TRPM3
T1 construct: endogenous in cells; host or cells: mIMCD-3 cell line with TRPM3 knocked out by CRISPR/Cas9; excised primary cilia
Excerpt: The large-conductance ciliary channel is not detectable unless TRPP2 is expressed. Given the pharmacological similarities between the ciliary TRPP2-dependent channel and TRPM3, we investigated whether the ciliary channel also requires expression of TRPM3. We used an mIMCD-3 cell line in which TRPM3 was knocked out by CRISPR/Cas9 genome editing. In electrical recordings from the primary cilia of cells lacking TRPM3, the large-conductance channel was never seen (n=45, Table 1, TRPM3 KO). […] Knocking out TRPM3 had no effect on the activity of another ciliary channel, TRPM4. In 17 cilia tested from TRPM3-knockout cells, 1 mM cytoplasmic Ca^2+ on average activated a current at +100 mV of 47±7 pA. […] As in cilia of wild-type cells, 2 mM cytoplasmic MgATP blocked the TRPM4 current. […]
All recordings were done under voltage clamp at room temperature (24° C.). […] Total mean channel current was measured as the mean current minus the current attributed to leak channels. The latter was determined from an amplitude histogram. […] Channel open probabilities were determined from amplitude histograms and are reported only when the number of channels in the membrane was unambiguous. The presence or absence of active TRPP2 channels was assessed with the cilium or patch exposed to 3 μM cytoplasmic Ca^2+ and the voltage clamped to +40 mV. […]

[1] = target: T2, ciliary TRPP2-dependent channel (Mus musculus, UniProt J9SQF3); experiment: Electrical recording of the large-conductance channel in single excised primary cilia of mIMCD-3 cells; format: biochemical, murine; parameters: mean single-channel conductance (slope) / extrapolated reversal potential (x-intercept): dose or concentration left out as unconfirmed; conditions: for increase of mean channel current (factor): +60 mV
T2 construct: Electrical recordings were made from primary cilia of mIMCD-3 cells; host or cells: mIMCD-3 cells, excised primary cilia (inside-out) or apical membrane patches
Method: (§1) Electrical recordings were made from primary cilia of mIMCD-3 cells. mIMCD-3 cells (murine epithelial cells from the renal inner medullary collecting duct, (CRL-2123, American Type Culture Collection, Manassas, Va., USA) were cultured on beads that were free to move in the recording chamber. Suction was applied to a recording pipette so that a single primary cilium entered the pipette. If a resistance of at least 1 GΩ formed between the membrane and the pipette, the cilium was excised from the cell. This left the cilium inside the recording pipette in the inside-out configuration. The pipette containing the cilium could then be transferred among different solutions that bathed the cytoplasmic face of the membrane. In one set of experiments (FIGS. 1 and 2), the external solution was replaced by perfusing the pipette (FIG. 14).
During recording, the beads coated with cells were stored in a standard external solution containing (in mM) NaCl 140, KCl 5, CaCl2 2, MgCl2 2, sodium pyruvate 2, HEPES 5, and D-glucose 9.4, adjusted to pH 7.4 with NaOH. The recording pipettes also contained this solution except as noted. […] The standard cytoplasmic solution contained (in mM) KCl 140, NaCl 5, CaCl2 0.7, MgCl2 2, HEPES 5, BAPTA 2, and D-glucose 5, adjusted to pH 7.4 with KOH. This solution contained 0.1 μM free Ca^2+. To make a cytoplasmic solution with 3 μM free Ca^2+, BAPTA was replaced with dibromoBAPTA, and the total CaCl2 was increased to 1.4 mM. In buffered solutions, concentrations of free Ca^2+ were estimated by the method of Bers (see Bers D M: “A simple method for the accurate determination of free [Ca] in Ca-EGTA solutions” Am J Physiol Cell Physiol. 1982; 242: C404-C408), which is herein incorporated by reference in its entirety.
All recordings were done under voltage clamp at room temperature (24° C.). Equipment, software, and technical details, including corrections for liquid junction potentials, were conducted as described in the article: Kleene S J, Kleene N K. “The native TRPP2-dependent channel of murine renal primary cilia” Am J Physiol Renal Physiol. 2017; 312: F96-F108, which is herein incorporated by reference in its entirety. During acquisition, currents were low-pass filtered at 2 kHz and digitized at 5 kHz. Total mean channel current was measured as the mean current minus the current attributed to leak channels. The latter was determined from an amplitude histogram. […] Channel open probabilities were determined from amplitude histograms and are reported only when the number of channels in the membrane was unambiguous. The presence or absence of active TRPP2 channels was assessed with the cilium or patch exposed to 3 μM cytoplasmic Ca^2+ and the voltage clamped to +40 mV. If no large-conductance channels were seen to open within 2 min, active TRPP2 channels were judged to be absent.

mIMCD-3 cells = experiment: Measuring intracellular calcium (Fura2-AM, F340/F380) in mIMCD-3 cells; format: cell-based, murine; conditions: 200 μM pregnenolone sulfate in 0.4% DMSO
Method: Wild-type (WT) mIMCD-3 cells and a clone of mIMCD-3 cells that lacked TRPP2 (TRPP2 KO) were grown to confluence in a 96-well plate and loaded with Fura2-AM, a ratiometric Ca^2+ indicator dye. The ratio of the fluorescence (after background subtraction) at 340 nm and 380 nm (F340/F380) correlates with the cytoplasmic Ca^2+ concentration. […] Unlike in the electrophysiological ciliary recordings, here the apical surface of the cell, including the cilium, is exposed to the pregnenolone sulfate. […] Responses from individual wells are shown as black circles. The experiment was done with two different passages for each cell line for a total of 19 wells per condition.
Wild-type mIMCD-3 cells and one mIMCD-3 clone with TRPP2 knocked out were grown to confluence in a 96-well plate. Standard external solution with 1 mM probenecid was used for all solutions. […] The ratio of the fluorescence (after background subtraction) at 340 nm and 380 nm (F340/F380) indicates the cytoplasmic Ca^2+ concentration and was measured on a BioTek Synergy 4 plate reader. Background fluorescence (wells with cells, 0.01% pluronic acid, and 0.1% DMSO in standard external solution, but no dye) was subtracted from the F340 and F380 readings. […]

TRPP2-dependent channels = target: T3, TRPP2-dependent channels (Mus musculus, UniProt J9SQF3); experiment: Incidences of TRPP2-dependent channels in apical and ciliary membranes; format: biochemical, murine; conditions: for incidence of TRPP2-dependent channels: PS 75 or 230 μM external, 3 μM cytoplasmic Ca2+, +40 mV
T3 construct: Electrical recordings were made from primary cilia of mIMCD-3 cells; host or cells: mIMCD-3 cells, excised primary cilia (inside-out) or apical membrane patches
Method: In Table 1, the presence or absence of active TRPP2 channels was assessed with the cilium or apical membrane patch exposed to 3 μM cytoplasmic Ca^2+ and the voltage clamped to +40 mV. If no large-conductance channels were seen to open within 2 min, active TRPP2 channels were judged to be absent. […] PS, pregnenolone sulfate; KO, knockout; ND, not determined.
as §1
All recordings were done under voltage clamp at room temperature (24° C.). Equipment, software, and technical details, including corrections for liquid junction potentials, were conducted as described in the article: Kleene S J, Kleene N K. “The native TRPP2-dependent channel of murine renal primary cilia” Am J Physiol Renal Physiol. 2017; 312: F96-F108, which is herein incorporated by reference in its entirety. During acquisition, currents were low-pass filtered at 2 kHz and digitized at 5 kHz. Total mean channel current was measured as the mean current minus the current attributed to leak channels. The latter was determined from an amplitude histogram. In each cilium reported, the number of large-conductance channels was between 1 and 5. Channel open probabilities were determined from amplitude histograms and are reported only when the number of channels in the membrane was unambiguous. The presence or absence of active TRPP2 channels was assessed with the cilium or patch exposed to 3 μM cytoplasmic Ca^2+ and the voltage clamped to +40 mV. If no large-conductance channels were seen to open within 2 min, active TRPP2 channels were judged to be absent. These cilia have a second Ca^2+-activated channel, TRPM4, but it is not activated by the concentrations of cytoplasmic Ca^2+ used in this study ([…] The half-maximal effect of Ca^2+ on ciliary TRPM4 occurs at 646 μM at +100 mV and 1166 μM at −100 mV.

T3 sequence (J9SQF3 whole entry): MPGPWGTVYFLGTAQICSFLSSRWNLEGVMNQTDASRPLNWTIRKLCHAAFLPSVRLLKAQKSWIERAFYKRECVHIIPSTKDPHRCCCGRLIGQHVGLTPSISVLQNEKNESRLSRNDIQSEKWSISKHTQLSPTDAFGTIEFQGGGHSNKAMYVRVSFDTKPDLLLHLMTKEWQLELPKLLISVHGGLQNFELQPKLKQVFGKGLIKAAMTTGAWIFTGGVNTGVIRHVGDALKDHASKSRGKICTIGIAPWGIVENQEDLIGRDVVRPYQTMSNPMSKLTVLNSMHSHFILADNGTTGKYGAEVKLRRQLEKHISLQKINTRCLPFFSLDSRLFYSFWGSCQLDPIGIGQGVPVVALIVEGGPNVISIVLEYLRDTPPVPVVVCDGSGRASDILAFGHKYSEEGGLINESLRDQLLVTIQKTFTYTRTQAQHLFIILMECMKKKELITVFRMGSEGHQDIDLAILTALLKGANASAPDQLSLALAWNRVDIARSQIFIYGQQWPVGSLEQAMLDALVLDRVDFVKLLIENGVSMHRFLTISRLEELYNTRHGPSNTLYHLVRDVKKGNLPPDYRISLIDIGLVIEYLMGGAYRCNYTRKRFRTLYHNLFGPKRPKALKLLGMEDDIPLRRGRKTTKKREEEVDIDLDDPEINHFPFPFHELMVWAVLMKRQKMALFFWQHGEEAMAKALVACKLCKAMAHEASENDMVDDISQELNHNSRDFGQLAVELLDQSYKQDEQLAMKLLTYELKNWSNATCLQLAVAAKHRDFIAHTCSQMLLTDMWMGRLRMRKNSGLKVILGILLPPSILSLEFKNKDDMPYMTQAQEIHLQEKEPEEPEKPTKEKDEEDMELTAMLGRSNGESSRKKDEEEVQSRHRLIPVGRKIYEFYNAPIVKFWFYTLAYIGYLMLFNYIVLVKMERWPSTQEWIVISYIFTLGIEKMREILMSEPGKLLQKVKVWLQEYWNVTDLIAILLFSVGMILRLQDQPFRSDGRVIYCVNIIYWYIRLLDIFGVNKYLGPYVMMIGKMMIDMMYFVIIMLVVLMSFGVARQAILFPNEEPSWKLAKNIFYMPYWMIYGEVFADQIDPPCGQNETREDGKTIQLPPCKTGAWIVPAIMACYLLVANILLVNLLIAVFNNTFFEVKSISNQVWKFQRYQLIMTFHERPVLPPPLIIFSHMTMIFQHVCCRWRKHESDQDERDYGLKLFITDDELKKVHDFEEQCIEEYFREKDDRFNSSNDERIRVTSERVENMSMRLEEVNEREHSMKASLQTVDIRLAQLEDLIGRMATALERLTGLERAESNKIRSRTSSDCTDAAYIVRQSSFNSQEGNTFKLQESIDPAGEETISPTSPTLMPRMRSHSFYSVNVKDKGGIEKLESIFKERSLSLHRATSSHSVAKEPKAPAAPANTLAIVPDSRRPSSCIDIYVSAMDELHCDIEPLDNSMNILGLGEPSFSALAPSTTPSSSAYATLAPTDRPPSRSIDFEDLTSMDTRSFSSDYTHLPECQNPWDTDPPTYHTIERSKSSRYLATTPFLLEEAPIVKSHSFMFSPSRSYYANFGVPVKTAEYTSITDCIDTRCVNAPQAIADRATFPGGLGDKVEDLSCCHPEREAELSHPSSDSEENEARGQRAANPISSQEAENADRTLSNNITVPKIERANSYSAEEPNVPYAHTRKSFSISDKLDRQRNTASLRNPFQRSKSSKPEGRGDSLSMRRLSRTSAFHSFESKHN
T2 sequence (J9SQF3 whole entry): as above
T1 sequence (Q7TN37 whole entry): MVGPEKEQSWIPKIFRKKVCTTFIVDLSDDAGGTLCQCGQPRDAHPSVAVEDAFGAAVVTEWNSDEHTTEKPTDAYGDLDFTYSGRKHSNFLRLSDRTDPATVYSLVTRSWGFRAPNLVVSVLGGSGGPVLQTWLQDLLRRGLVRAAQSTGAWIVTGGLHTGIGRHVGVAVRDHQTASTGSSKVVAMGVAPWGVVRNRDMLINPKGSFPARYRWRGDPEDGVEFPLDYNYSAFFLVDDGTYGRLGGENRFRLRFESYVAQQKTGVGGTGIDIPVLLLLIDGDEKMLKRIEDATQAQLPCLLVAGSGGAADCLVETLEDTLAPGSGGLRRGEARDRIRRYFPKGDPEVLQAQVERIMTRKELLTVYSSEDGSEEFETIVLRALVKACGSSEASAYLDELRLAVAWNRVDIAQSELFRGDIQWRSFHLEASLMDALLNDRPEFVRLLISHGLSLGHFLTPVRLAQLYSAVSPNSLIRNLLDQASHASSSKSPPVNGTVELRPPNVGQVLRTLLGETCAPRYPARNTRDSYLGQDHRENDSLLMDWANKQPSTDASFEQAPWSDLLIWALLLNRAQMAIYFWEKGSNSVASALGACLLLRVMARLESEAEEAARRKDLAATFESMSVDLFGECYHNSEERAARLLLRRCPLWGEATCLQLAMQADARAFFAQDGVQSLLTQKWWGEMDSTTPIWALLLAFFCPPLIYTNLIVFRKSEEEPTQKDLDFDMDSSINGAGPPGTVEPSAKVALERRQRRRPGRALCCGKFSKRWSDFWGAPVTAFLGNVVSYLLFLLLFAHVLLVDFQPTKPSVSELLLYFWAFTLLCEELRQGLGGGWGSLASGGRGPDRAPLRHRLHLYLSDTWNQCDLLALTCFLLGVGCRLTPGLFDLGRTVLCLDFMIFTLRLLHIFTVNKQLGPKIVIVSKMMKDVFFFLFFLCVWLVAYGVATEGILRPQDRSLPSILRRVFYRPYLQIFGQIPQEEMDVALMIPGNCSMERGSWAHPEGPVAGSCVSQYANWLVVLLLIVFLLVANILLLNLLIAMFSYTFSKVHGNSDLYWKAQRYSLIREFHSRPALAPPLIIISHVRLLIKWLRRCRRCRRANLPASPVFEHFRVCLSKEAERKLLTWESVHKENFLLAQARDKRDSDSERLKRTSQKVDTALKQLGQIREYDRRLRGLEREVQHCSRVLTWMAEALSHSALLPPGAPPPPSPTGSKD

Nc1ncnc2c1ncn2[C@@H]1O[C@H](COP(=O)(O)OP(=O)([O-])OP(=O)([O-])O)[C@@H](O)[C@H]1O.[Mg+2] [MgATP]
fraction of TRPM4 current remaining after addition of MgATP (TRPM4): 0.34±0.03

Pregnenolone sulfate
k (Boltzmann slope factor) ([1]; 1 μM external PS, 3 μM cytoplasmic Ca2+): 13.5 ± 1.0 mV | V1/2 (potential at which open probability is 0.5) ([1]; 1 μM external PS, 3 μM cytoplasmic Ca2+, Vm −40 to +60 mV): −5.6 ± 1.1 mV | channel activation at 230 μM compared with 75 μM ([1]; 3 μM cytoplasmic Ca2+, FIG. 7): no more effective | k (Boltzmann slope factor) ([1]; 10 μM external PS, 3 μM cytoplasmic Ca2+): 18.3 ± 1.5 mV | V1/2 (potential at which open probability is 0.5) ([1]; 10 μM external PS, 3 μM cytoplasmic Ca2+, Vm −40 to +50 mV): −21.4 ± 1.4 mV | k (Boltzmann slope factor) ([1]; 75 μM external PS, KCl-based external solution, 3 μM cytoplasmic Ca2+): 14.8 ± 0.9 mV | V1/2 (potential at which open probability is 0.5) ([1]; 75 μM external PS, KCl-based external solution, 3 μM cytoplasmic Ca2+, Vm −140 to −20 mV): −67.2 ± 1.0 mV | increase of mean channel current (factor) ([1]; […] μM cytoplasmic pregnenolone sulfate, 0.1 μM cytoplasmic Ca2+): 3.6±0.7 | increase of mean channel current (factor) ([1]; […] μM external (pipette) pregnenolone sulfate, 0.1 μM cytoplasmic free Ca2+): 30±12 | extrapolated reversal potential (x-intercept) ([1]; […] μM external pregnenolone sulfate, standard external solution): −67±2 mV | mean single-channel conductance (slope) ([1]; […] μM external pregnenolone sulfate, standard external solution, fit −40 to +50 mV): 92±3 pS | fraction of the mean channel current remaining after replacing external solution with one lacking pregnenolone sulfate ([1]; after 75 μM external pregnenolone sulfate, −10 mV, free Ca2+ 3): 0.14±0.08 | channel activity (open probability) ([1]; external pregnenolone sulfate up to 75 μM, 0.1 μM cytoplasmic Ca2+, FIG. 5): significantly increased the channel activity | cytoplasmic Ca2+ response (Post Stim. F340/F380 − Pre Stim. F340/F380) (mIMCD-3 cells; TRPP2 KO mIMCD-3 cells, compared with wild-type): smaller response | cytoplasmic Ca2+ response (Post Stim. F340/F380 − Pre Stim. F340/F380) (mIMCD-3 cells; wild-type mIMCD-3 cells): increased cytoplasmic Ca^2+ | incidence of TRPP2-dependent channels (TRPP2-dependent channels; apical membrane, TRPM3 KO): 0/34 | incidence of TRPP2-dependent channels (TRPP2-dependent channels; apical membrane, TRPP2 KO): 0/30 | incidence of TRPP2-dependent channels (TRPP2-dependent channels; apical membrane, wild type): 3/57 | incidence of TRPP2-dependent channels (TRPP2-dependent channels; ciliary membrane, TRPP2 KO): 0/28 | incidence of TRPP2-dependent channels (TRPP2-dependent channels; ciliary membrane, wild type): 77/259 | cilia in which channels were observed (TRPP2-dependent channels; wild type cilia exposed to pregnenolone sulfate): 30%
